Assay results as given in US20230303540A1 (Merck Sharp & Dohme LLC, priority 2020, published 2023).

Molecular target: GST-tagged truncated human mutant G2019S LRRK2 (Homo sapiens, UniProt Q5S007, G2019S)
Experiment: LRRK2 G2019S Km ATP LanthaScreen assay
Format: biochemical
Details: 134 μM ATP (Km ATP), LRRKtide substrate, mean IC50 values; read-out: LRRK2 pIC50 (converted)
In short: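 Compound preincubated 15 min at room temperature with enzyme in pH 8.5 Tris buffer (10 mM MgCl2). Then a 90 min reaction at ambient temperature with 134 μM (Km) ATP and fluorescein-LRRKtide. EDTA stop, Tb anti-phospho antibody TR-FRET; […]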

Which IC50 does the source give for `Cc1c(Nc2ncc3cc(Cl)c(N4CCN(C5(C)COCC5O)CC4)cc3n2)cnn1C1CC1(F)F` (single isomer, unassigned) [Ex-6.41, (3S,4S) or (3R,4R) 4-[4-(6-chloro-2-{[1-(2,2-(R) or (S)difluorocyclopropyl)-5-methyl-1H-pyrazol-4-yl]amino}quinazolin-7-yl)piperazin-1-yl]-4-methyloxolan-3-ol] here?
The IC50 was 32.9 nM.

How did the IC50 turn out when `Cn1ncc(Nc2ncc3ccc(N4C(=O)C5CCC4C5)cc3n2)c1C(F)F` (single isomer, unassigned) [Ex-4.7, 2-(2-{[5-(difluoromethyl)-1-methyl-1H-pyrazol-4-yl]amino}quinazolin-7-yl)-2-azabicyclo[2.2.1]heptan-3-one] was run?
The IC50 was 3.19 nM.

`O[C@H]1COCC12CCN(c1cc3nc(Nc4cnn(C5CC5)c4Cl)ncc3cc1Cl)CC2` [Ex-3.2] was tested. Which IC50 did it give?
Its IC50 is 1.06 nM.

With `Cn1ncc(Nc2ncc3cc(Cl)c(N4CCN(C5(C)COC5)CC4)cc3n2)c1C(F)(F)F` [Ex-4.15, 6-chloro-7-[4-(3-methyloxetan-3-yl)piperazin-1-yl]-N-[1-methyl-5-(trifluoromethyl)-1H-pyrazol-4-yl]quinazolin-2-amine] as the compound, how does the IC50 read?
Its IC50 is 19.3 nM.

Which IC50 does the source give for `Cn1ncc(Nc2ncc3cc(Cl)c(N4CCN(C5(C)COCC5O)CC4)cc3n2)c1C(F)F` (single isomer, unassigned) [Ex-6.49, (3S,4S) or (3R,4R) 4-(4-(6-chloro-2-((5-(difluoromethyl)-1-methyl-1H-pyrazol-4-yl)amino)quinazolin-7-yl)piperazin-1-yl)-4-methyltetrahydrofuran-3-ol] here?
The IC50 was 2.07 nM.

`Cc1c(Nc2cc3cc(N4CCN([C@]5(C)COC[C@@H]5O)CC4)c(Cl)cc3cn2)cnn1C1CC1` (single isomer, unassigned) [Ex-1.1, (3R,4R) or (3S,4S) 4-(4-(7-chloro-3-((1-cyclopropyl-5-methyl-1H-pyrazol-4-yl)amino)isoquinolin-6-yl)piperazin-1-yl)-4-methyltetrahydrofuran-3-ol] was tested. Which IC50 did it give?
The IC50 was 0.716 nM.

For `FC1(F)CN(C2CCN(c3cc4nc(Nc5cnn(C6CC6)c5Cl)ncc4cc3Cl)CC2)C1` [Ex-1.25, 6-chloro-N-(5-chloro-1-cyclopropyl-1H-pyrazol-4-yl)-7-[4-(3,3-difluoroazetidin-1-yl)piperidin-1-yl]quinazolin-2-amine], which IC50 is on record?
Its IC50 is 4.33 nM.

Which IC50 does the source give for `CCn1ncc(Nc2ncc3cc(Cl)c(N4CCN(C5(C)COC5)CC4)cc3n2)c1Cl` [Ex-4.68, 6-chloro-N-(5-chloro-1-ethyl-1H-pyrazol-4-yl)-7-[4-(3-methyloxetan-3-yl)piperazin-1-yl]quinazolin-2-amine] here?
The IC50 was 3.38 nM.

Which IC50 does the source give for `CC1(N2CCN(c3cc4nc(Nc5cnn(CC6CC6)c5Cl)ncc4cc3Cl)CC2)COC1` [Ex-4.48, 6-chloro-N-[5-chloro-1-(cyclopropylmethyl)-1H-pyrazol-4-yl]-7-[4-(3-methyloxetan-3-yl)piperazin-1-yl]quinazolin-2-amine] here?
The IC50 was 0.625 nM.

For `Cc1nn(C2CC3(C2)CN(C2COC2)C3)cc1Nc1ncc2ccc(N3C(=O)C4CCC3C4)cc2n1` (single isomer, unassigned) [Ex-8.6, (1R,4S) or (1S,4R)-2-[2-({3-methyl-1-[2-(oxetan-3-yl)-2-azaspiro[3.3]heptan-6-yl]-1H-pyrazol-4-yl}amino)quinazolin-7-yl]-2-azabicyclo[2.2.1]heptan-3-one], which IC50 is on record?
The IC50 was 4.86 nM.

For `Cc1c(Nc2ncc3cc(Cl)c(N4CCN(C5COCC5O)CC4)cc3n2)cnn1C(C)(C)C#N` (single isomer, unassigned) [Ex-6.21, (3S,4S) or (3R,4R) 2-[4-({6-chloro-7-[4-(4-hydroxyoxolan-3-yl)piperazin-1-yl]quinazolin-2-yl}amino)-5-methyl-1H-pyrazol-1-yl]-2-methylpropanenitrile], which IC50 is on record?
Its IC50 is 0.323 nM.

`CC1(N2CCN(c3cc4nc(Nc5cnn(C67CC(F)(C6)C7)c5Cl)ncc4cc3Cl)CC2)COCC1O` (single isomer, unassigned) [Ex-13.8, (3S,4S) or (3R,4R)4-(4-(6-chloro-2-((5-chloro-1-(3-fluorobicyclo[1.1.1]pentan-1-yl)-1H-pyrazol-4-yl)amino)quinazolin-7-yl)piperazin-1-yl)-4-methyltetrahydrofuran-3-ol] was tested. Which IC50 did it give?
The IC50 was 1.69 nM.

How did the IC50 turn out when `O=C1C2CCC(C2)N1c1ccc2cnc(Nc3ccn(CC(F)(F)F)n3)nc2c1` (stereo not drawn) [Ex-4.8, 2-(2-{[1-(2,2,2-trifluoroethyl)-1H-pyrazol-3-yl]amino}quinazolin-7-yl)-2-azabicyclo[2.2.1]heptan-3-one] was run?
The IC50 was 8.95 nM.

`CC1(N2CCN(c3cc4nc(Nc5cnn(C6CC6)c5Cl)ncc4cc3Cl)CC2)COCC1O` (single isomer, unassigned) [Ex-1.46, (3S,4S or 3R,4R)-4-(4-{6-chloro-2-[5-chloro-1-cyclopropyl-1H-pyrazol-4-yl)amino]quinazolin-7-yl}piperazin-1-yl)-4-methyloxolane-3-ol] was tested. Which IC50 did it give?
The IC50 was 0.625 nM.

`CC(C)(O)Cn1ncc(Nc2ncc3cc(Br)c(NCC4CC4)nc3n2)c1Cl` [Ex-15.1, 1-[4-({6-Bromo-7-[(cyclopropylmethyl)amino]pyrido[2,3-d]pyrimidin-2-yl}amino)-5-chloro-1H-pyrazol-1-yl]-2-methylpropan-2-ol] was tested. Which IC50 did it give?
The IC50 was 36.7 nM.

With `Cc1c(Nc2ncc3cc(Cl)c(N4CCN(C5COCC5O)CC4)cc3n2)cnn1CC(F)(F)F` (single isomer, unassigned) [Ex-6.32, (3S,4S) or (3R,4R) 4-[4-(6-chloro-2-{[5-methyl-1-(2,2,2-trifluoroethyl)-1H-pyrazol-4-yl]amino}quinazolin-7-yl)piperazin-1-yl]oxolan-3-ol] as the compound, how does the IC50 read?
Its IC50 is 0.608 nM.

For `Clc1cc2cnc(Nc3cnn(C4CC4)c3Cl)nc2cc1N1CCn2cnnc2C1` [Ex-1.26, 6-chloro-N-(5-chloro-1-cyclopropyl-1H-pyrazol-4-yl)-7-(5,6-dihydro[1,2,4]triazolo[4,3-a]pyrazin-7(8H)-yl)quinazolin-2-amine], which IC50 is on record?
The IC50 was 1.49 nM.

`CC1(N2CCN(c3nc4nc(Nc5cnn(CC(F)F)c5Cl)ncc4cc3Cl)CC2)COC1` [Ex-15.2, 6-chloro-N-[5-chloro-1-(2,2-difluoroethyl)-1H-pyrazol-4-yl]-7-[4-(3-methyloxetan-3-yl)piperazin-1-yl]pyrido[2,3-d]pyrimidin-2-amine] was tested. Which IC50 did it give?
The IC50 was 60.8 nM.

Which IC50 does the source give for `CC1(N2CCN(c3cc4nc(Nc5cnn(C(F)F)c5Cl)ncc4cc3Cl)CC2)COCC1O` (single isomer, unassigned) [Ex-3.59, (3R,4R) or (3S,4S) 4-(4-(6-chloro-2-((5-chloro-1-(difluoromethyl)-1H-pyrazol-4-yl)amino)quinazolin-7-yl)piperazin-1-yl)-4-methyltetrahydrofuran-3-ol] here?
Its IC50 is 0.178 nM.

Which IC50 does the source give for `C[C@@]1(O)COCC12CCN(c1cc3nc(Nc4cnn(C5CC5)c4Cl)ncc3cc1Cl)CC2` [Ex-3.5] here?
Its IC50 is 1.54 nM.

With `COC1CCC1n1ncc(Nc2ncc3cc(Cl)c(N4CCC(C)(O)CC4)cc3n2)c1C` (single isomer, unassigned) [Ex-6.19, 1-[6-chloro-2-({1-[(1R,2R) or (1S,2S)-2-methoxycyclobutyl]-5-methyl-1H-pyrazol-4-yl}amino)quinazolin-7-yl]-4-methylpiperidin-4-ol] as the compound, how does the IC50 read?
The IC50 was 2.17 nM.

Which IC50 does the source give for `OC1C2CC1CN(c1cc3nc(Nc4cnn(C5CC5)c4)ncc3cc1Cl)C2` (stereo not drawn) [Ex-3.28, 3-{6-chloro-2-[(1-cyclopropyl-1H-pyrazol-4-yl)amino]quinazolin-7-yl}-3-azabicyclo [3.1.1]heptan-6-ol] here?
The IC50 was 4.52 nM.

How did the IC50 turn out when `CC(C)(O)Cn1ncc(Nc2ncc3cc(Cl)c(N4CCC(O)CC4)cc3n2)c1Cl` [Ex-3.11, 1-(6-chloro-2-{[5-chloro-1-(2-hydroxy-2-methylpropyl)-1H-pyrazol-4-yl]amino}quinazolin-7-yl)piperidin-4-ol] was run?
The IC50 was 0.488 nM.

With `Cc1c(Nc2ncc3cc(Cl)c(N4CCN(C5COCC5O)CC4)cc3n2)cnn1C1CC1(F)F` (single isomer, unassigned) [Ex-6.45, (3S,4S) or (3R,4R) 4-[4-(6-chloro-2-{[1-(2,2-(R) or (S)difluorocyclopropyl)-5-methyl-1H-pyrazol-4-yl]amino}quinazolin-7-yl)piperazin-1-yl]oxolan-3-ol] as the compound, how does the IC50 read?
Its IC50 is 0.843 nM.

With `Cc1c(Nc2ncc3cc(Cl)c(N4CCC(C)(O)CC4)cc3n2)cnn1C1CC1(F)F` (single isomer, unassigned) [Ex-6.9, 1-(6-chloro-2-{[1-(2,2-(R) or (S)difluorocyclopropyl)-5-methyl-1H-pyrazol-4-yl]amino}quinazolin-7-yl)-4-methylpiperidin-4-ol] as the compound, how does the IC50 read?
The IC50 was 1.79 nM.

For `Cc1c(N2CCN(C3(C)COC3)CC2)c(Cl)cc2cnc(Nc3cnn(CC(F)(F)F)c3)nc12` [Ex-4.3, 6-Chloro-8-methyl-7-(4-(3-methyloxetan-3-yl)piperazin-1-yl)-N-(1-(2,2,2-trifluoroethyl)-1H-pyrazol-4-yl)quinazolin-2-amine], which IC50 is on record?
Its IC50 is 3.36 nM.

For `CC(C)(O)Cn1ncc(Nc2ncc3cc(Cl)c(N4CCC(C)(O)CC4)cc3n2)c1Cl` [Ex-3.13, 1-(6-chloro-2-{[5-chloro-1-(2-hydroxy-2-methylpropyl)-1H-pyrazol-4-yl]amino}quinazolin-7-yl)-4-methylpiperidin-4-ol], which IC50 is on record?
Its IC50 is 1.54 nM.

How did the IC50 turn out when `OC1COCC1N1CCN(c2cc3nc(Nc4cnn(C(F)F)c4)ncc3cc2Cl)CC1` (single isomer, unassigned) [Ex-6.47, (3S,4S) or (3R,4R) 4-(4-(6-chloro-2-((1-(difluoromethyl)-1H-pyrazol-4-yl)amino)quinazolin-7-yl)piperazin-1-yl)tetrahydrofuran-3-ol] was run?
The IC50 was 0.85 nM.

Which IC50 does the source give for `CC1(O)CC2(CN(c3cc4nc(Nc5cnn(C6CC6)c5Cl)ncc4cc3Cl)C2)C1` [Ex-4.28, 2-{6-chloro-2-[(5-chloro-1-cyclopropyl-1H-pyrazol-4-yl)amino]quinazolin-7-yl}-6-methyl-2-azaspiro[3.3]heptan-6-ol] here?
Its IC50 is 1.05 nM.

How did the IC50 turn out when `CCn1ncc(Nc2ncc3ccc(N4C(=O)[C@@H]5CC[C@H]4C5)nc3n2)c1C` (single isomer, unassigned) [Ex-15.3, (1S,4R) or (1R,4S)-2-{2-[(1-ethyl-5-methyl-1H-pyrazol-4-yl)amino]pyrido[2,3-d]pyrimidin-7-yl}-2-azabicyclo[2.2.1]heptan-3-one] was run?
Its IC50 is 4.43 nM.
